Data taken from PubChem BioAssay (NCI).
Values joined by “and” are separate entries in the source; they are usually repeats but may differ in a detail not shown here. Equal entries are not always repeated.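 1) Cells in 96-well plates. 2) Compound, 48 h, 5 concentrations. 3) Linear interpolation between surrounding doses. 4) Unreached endpoint = highest concentration. GI50: concentration for 50% inhibition of growth. The concentration for full growth arrest is given as TGI.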

How the values were obtained:
Assay in all cases: DTP human tumour cell line panel, 48 h
[1] = system: A498 renal
[2] = system: BT-549 breast
[3] = system: CCRF-CEM leukemia
[4] = system: HCT-15 colon
[5] = system: HL-60(TB) leukemia
[6] = system: HOP-92 NSCLC
[7] = system: K-562 leukemia
[8] = system: MCF7 breast
[9] = system: MOLT-4 leukemia
[10] = system: SK-MEL-2 melanoma

SMILES	TGI [1]	TGI [2]	TGI [3]	TGI [4]	TGI [5]	TGI [6]	TGI [7]	TGI [8]	TGI [9]	GI50 [1]	GI50 [2]	GI50 [3]	GI50 [4]	GI50 [5]	GI50 [6]	GI50 [7]	GI50 [8]	GI50 [9]	GI50 [10]	TGI [10]
[N-]=[N+]=Nc1cc(=O)n2c3c(cccc13)CCC2	> 100 µM	> 100 µM	> 100 µM	> 100 µM	> 100 µM	> 100 µM	> 100 µM	> 100 µM	> 100 µM	–	–	–	–	–	–	–	–	–	–	–
CCN1C(=O)N(CC)C2C1NN=c1s/c(=C3\C(=O)N(CC(C)(C)C)c4ccccc43)c(=O)n12 (stereo unspecified)	4.85 µM	9.65 µM	> 100 µM	18.4 µM	22.6 µM	16 µM	20.9 µM	18.7 µM	40.3 µM	1.12 µM	2.62 µM	3.62 µM	3.31 µM	3.78 µM	2.56 µM	1.65 µM	1.62 µM	3.79 µM	11.3 µM	33.1 µM
CCCCCOc1ccc(/C=N/Nc2cc(C)nc3ccc(Br)cc23)cc1	3.32 µM	3.43 µM	3.51 µM	3.13 µM	3.78 µM	2.88 µM	2.83 µM	3.68 µM	3.58 µM	1.83 µM	1.77 µM	1.54 µM	1.57 µM	1.91 µM	1.36 µM	1.24 µM	1.71 µM	1.73 µM	1.98 µM	3.91 µM
c1ccc2c(c1)c1c(c3ccccc32)CN2CCCC2C1 (stereo unspecified)	12.1 µM	53.9 µM	15.5 µM	> 70.4 µM	4.21 µM	13.4 µM	> 100 µM	11.4 µM	> 100 µM	–	–	–	–	–	–	–	–	–	–	9.1 µM
O=C(O)c1ccc(OCc2ccccc2)c(Cl)c1	> 100 µM	> 100 µM	> 100 µM	> 100 µM	> 100 µM	> 100 µM	> 100 µM	> 100 µM	> 100 µM	–	–	–	–	–	–	–	–	–	–	> 100 µM
COCC1(CO)C(=O)C2CCN1CC2 (stereo unspecified)	63.9 µM	29.5 µM	37.1 µM	32.7 µM	45.2 µM	30 µM	58.5 µM	52.6 µM	51.4 µM	23 µM	15.6 µM	10.8 µM	15.8 µM	18.9 µM	14.8 µM	19.9 µM	19.1 µM	19.4 µM	20.6 µM	46.5 µM
O=C(Nc1ccc(-n2ccc3c(NC(=O)c4ccccc4)nccc32)cc1)Nc1ccc(Cl)c(Cl)c1	7.58 µM	17.9 µM	1.93 µM	2.84 µM	4.22 µM	4.61 µM	> 100 µM	2.37 µM	8.56 µM	2.58 µM	3.08 µM	0.252 µM	0.201 µM	1.25 µM	1.23 µM	0.736 µM	1.1 µM	0.908 µM	1.98 µM	4.87 µM
C1=C\COCc2cc(ccc2OCCN2CCCC2)Nc2nccc(n2)-c2cccc(c2)COC/1	5.32 µM	6.66 µM	7 µM	7.51 µM	4.79 µM	4.86 µM	3.65 µM	3.37 µM	4.9 µM	1.86 µM	4.67 µM	2.56 µM	1.26 µM	1.28 µM	1.34 µM	0.933 µM	0.772 µM	1.33 µM	2.49 µM	5.51 µM
O=C(c1ccc(/C=C/c2n[nH]c3ccccc23)cc1)N1CCNCC1	8.87 µM and 21.5 µM	> 10 µM and 13.6 µM	> 10 µM and 75.8 µM	–	4.45 µM and 22.3 µM	> 10 µM and 7.63 µM	3.58 µM and 21.5 µM	2.46 µM and 15.5 µM	5.79 µM and 36.3 µM	2 µM and 7.83 µM	5.58 µM and 4.14 µM	6.03 µM and 10.4 µM	1.5 µM and 3.47 µM	1.94 µM and 4.15 µM	2.71 µM and 1.89 µM	1.45 µM and 1.37 µM	–	2.26 µM and 2.27 µM	4.53 µM and 6.85 µM	> 10 µM and 20.5 µM
N=C(N)c1ccc2nc(-c3cc(CC(=O)N[C@@H](CC(=O)O)C(=O)O)cc(-c4cc(S(N)(=O)=O)ccc4O)c3O)[nH]c2c1	> 100 µM	> 100 µM	> 100 µM	> 100 µM	> 100 µM	> 100 µM	> 100 µM	> 100 µM	> 100 µM	> 100 µM	> 100 µM	> 100 µM	> 100 µM	> 100 µM	> 100 µM	> 100 µM	> 100 µM	> 100 µM	> 100 µM	> 100 µM
C=C1C(=O)OC2CC(C)C3(O)CCC(=O)C3(C)CC12 (stereo unspecified)	66.2 µM	> 100 µM	> 100 µM	28.1 µM	39.2 µM	> 100 µM	–	> 100 µM	58 µM	–	–	–	–	–	–	–	–	–	–	71.5 µM
CC(=O)Oc1ccccc1C(=O)Nc1ncc([N+](=O)[O-])s1	–	–	15.1 µM	31.3 µM and > 95 µM	4.24 µM	0.966 µM and 8.1 µM	18.8 µM and > 100 µM	10.3 µM and > 100 µM	–	0.245 µM	1.97 µM	2.14 µM	2.94 µM	1.77 µM	0.227 µM	2.53 µM	2.26 µM	2.64 µM	2.05 µM	–
N#Cc1c(N/N=C/c2ccc(Cl)cc2Cl)nc(N)nc1N1CCCC1	36.1 µM	> 100 µM	58.3 µM	> 100 µM	59.4 µM	43.7 µM	49.5 µM	> 100 µM	> 100 µM	19.5 µM	> 100 µM	23.5 µM	19.3 µM	27.7 µM	17.6 µM	16.7 µM	> 100 µM	25 µM	72.3 µM	> 100 µM
CC(C)(S)C(N)C(=O)O (stereo unspecified)	> 100 µM	4110 µM and > 100 µM	> 5000 µM	> 5000 µM	> 5000 µM	> 5000 µM	> 5000 µM	2200 µM and > 100 µM	> 5000 µM	–	1570 µM	612 µM	1950 µM	3640 µM	2960 µM	2390 µM	994 µM	3040 µM	2390 µM	> 5000 µM
